Like-named read-outs stand apart in the source and are kept apart here.

Experimental findings from US20040010001A1, “Methods and compositions for modulating cell proliferation and cell death” (priority 1999, published 2004) are described below.

Experiment [1] deals with Human prostate PC3 tumor cells. In words: Drug treatment and extracellular bFGF (ELISA), LDH release, cell number. Format: cell-based. Particulars: for Extracellular LDH, % of control / Extracellular bFGF, % of control / Extracellular concentration bFGF / bFGF:LDH ratio: 72 hours. How it is done: The experimental conditions are described briefly below. […] The remaining cell number at the end of treatment was counted using a Coulter counter. The extracellular bFGF concentration was measured using ELISA. The release of lactate dehydrogenase (LDH) into the extracellular culture medium is indicative of cell death and gives a measure of the release of cellular content into the culture medium. If the increase in extracellular bFGF level is due to the release of bFGF upon cell death and lysis, the increase in bFGF will be accompanied by an increase in LDH in the same extent. This would result in an higher bFGF level and a constant bFGF-to-LDH ratio. On the other hand, an increase in extracellular bFGF due to an increase in bFGF production and release of bFGF from cells by processes other than cell lysis will result in an higher bFGF level and an higher bFGF-to-LDH ratio.

Experiment [2] has as its system Human prostate PC3 tumor cells. In words: aFGF/bFGF-induced resistance and reversal by suramin, sulforhodamine B assay. Particulars: for Resistance, Folds, aFGF 0.3 ng/ml + bFGF 1 ng/ml / Resistance, Folds, aFGF 1 ng/ml + bFGF 3 ng/ml: no suramin, relative to control. It is filed as cell-based. How it is done:
The experimental conditions are described briefly below. […] Cell number was measured using the sulforhodamine B assay which measures the total protein concentration. […] The FGF-induced resistance was dependent on the FGF concentrations, with a higher resistance at higher FGF concentrations.
(In general: In SRB staining, fixed cells bind dye roughly in proportion to their protein.)

The mark [3] stands for this setting: read-out: IC50, Control (without FGF treatment), Suramin, 15 μM, drug 96 hours with 15 μM suramin.
Setting [4] is: read-out: IC50, aFGF 0.3 ng/ml + bFGF 1 ng/ml, With suramin, FGF pretreatment 96 hours, drug 96 hours with 15 micromolar suramin.
[5] abbreviates: read-out: IC50, aFGF 1 ng/ml + bFGF 3 ng/ml, With suramin, FGF pretreatment 96 hours, drug 96 hours with 15 micromolar suramin.
Where [6] appears, read: Homo sapiens, read-out: IC50, Control (drug treatment only, without FGF treatment), No suramin, drug 96 hours.
Where [7] appears, read: Homo sapiens, read-out: IC50, aFGF 0.3 ng/ml + bFGF 1 ng/ml, No suramin, FGF pretreatment 96 hours, drug 96 hours.
Where [8] appears, read: Homo sapiens, read-out: IC50, aFGF 1 ng/ml + bFGF 3 ng/ml, No suramin, FGF pretreatment 96 hours, drug 96 hours.

With `N.N.[Cl][Pt][Cl]` [Cisplatin], the “Remaining cell number at 72 hours (% of control)” value in experiment [1] (drug concentration 2000 NM) was 86%; in experiment [1] (drug concentration 6000 NM), 45%; in experiment [1] (drug concentration 20000 NM), 18%. The entries for the “Remaining cell number at 72 hours × 10^6” value in experiment [1] (drug concentration 2000 NM), in experiment [1] (drug concentration 6000 NM) and in experiment [1] (drug concentration 20000 NM) were 1.9 × 10^6, 1.0 × 10^6 and 0.4 × 10^6, respectively. Also, the results for the “Extracellular LDH, % of control” value in experiment [1] (drug concentration 2000 NM), in experiment [1] (drug concentration 6000 NM) and in experiment [1] (drug concentration 20000 NM) were 169 % of control, 534 % of control and 563 % of control, respectively. Moreover, the “Extracellular bFGF, % of control” value is on record as 267 % of control in experiment [1] (drug concentration 2000 NM), 1561 % of control in experiment [1] (drug concentration 6000 NM) and 1641 % of control in experiment [1] (drug concentration 20000 NM). The “Extracellular concentration bFGF” value in experiment [1] (drug concentration 2000 NM) turned out to be 5.87 pg/mL; in experiment [1] (drug concentration 6000 NM), 95.9 pg/mL; in experiment [1] (drug concentration 20000 NM), 101 pg/mL. Moreover, the “bFGF:LDH ratio” value in experiment [1] (drug concentration 2000 NM) is on record as 1.58; in experiment [1] (drug concentration 6000 NM), 2.92; in experiment [1] (drug concentration 20000 NM), 2.88. The “Resistance, Folds, aFGF 0.3 ng/ml + bFGF 1 ng/ml” value in experiment [2] amounted to 1.76 Folds. In addition, the “Resistance, Folds, aFGF 1 ng/ml + bFGF 3 ng/ml” value in experiment [2] is listed as 3.69 Folds. Also, the IC50 in experiment [2] (read-out: IC50, Control (drug treatment only, without FGF treatment), No suramin, drug 96 hours) turned out to be 2760 nM; in experiment [2] (setting [3]) it was 2690 nM; in experiment [2] (read-out: IC50, aFGF 0.3 ng/ml + bFGF 1 ng/ml, No suramin, FGF pretreatment 96 hours, drug 96 hours), 4850 nM; in experiment [2] (setting [4]) it was 3090 nM; in experiment [2] (read-out: IC50, aFGF 1 ng/ml + bFGF 3 ng/ml, No suramin, FGF pretreatment 96 hours, drug 96 hours), 10200 nM; in experiment [2] (setting [5]) it was 3010 nM.
For the compound `CC[C@@]1(O)C(=O)OCc2c1cc1n(c2=O)Cc2cc3ccccc3nc2-1` [Camptothecin], the results for the “Remaining cell number at 72 hours (% of control)” value in experiment [1] (drug concentration 2 NM), in experiment [1] (drug concentration 6 NM) and in experiment [1] (drug concentration 20 NM) were 83%, 50% and 21%, respectively. For the same compound, the “Remaining cell number at 72 hours × 10^6” value is listed as 2.0 × 10^6 in experiment [1] (drug concentration 2 NM), 1.2 × 10^6 in experiment [1] (drug concentration 6 NM) and 0.5 × 10^6 in experiment [1] (drug concentration 20 NM). In addition, the “Extracellular LDH, % of control” value in experiment [1] (drug concentration 2 NM) is on record as 137 % of control; in experiment [1] (drug concentration 6 NM), 182 % of control; in experiment [1] (drug concentration 20 NM), 219 % of control. For the same compound, the “Extracellular bFGF, % of control” value in experiment [1] (drug concentration 2 NM) was 145 % of control; in experiment [1] (drug concentration 6 NM) it was 221 % of control; in experiment [1] (drug concentration 20 NM), 279 % of control. In addition, the entries for the “Extracellular concentration bFGF” value in experiment [1] (drug concentration 2 NM), in experiment [1] (drug concentration 6 NM) and in experiment [1] (drug concentration 20 NM) were 9.08 pg/mL, 13.9 pg/mL and 17.5 pg/mL, respectively. Moreover, the “bFGF:LDH ratio” value in experiment [1] (drug concentration 2 NM) stood at 1.06; in experiment [1] (drug concentration 6 NM), 1.22; in experiment [1] (drug concentration 20 NM), 1.28. Also, the IC50 in experiment [2] (setting [6]) was 5.03 nM; in experiment [2] (setting [7]), 11.4 nM; in experiment [2] (setting [8]) it was 17.2 nM; in experiment [2] (setting [3]), 4.8 nM; in experiment [2] (setting [4]) it was 5.4 nM; in experiment [2] (setting [5]), 5.78 nM. The “Resistance, Folds, aFGF 0.3 ng/ml + bFGF 1 ng/ml” value in experiment [2] stood at 2.26 Folds. Besides, in experiment [2], the “Resistance, Folds, aFGF 1 ng/ml + bFGF 3 ng/ml” value stood at 3.42 Folds.
For `O=C1c2c(O)ccc(O)c2C(=O)c2c(NCCNCCO)ccc(NCCNCCO)c21` [Mitoxantrone], the IC50 is 180 nM in experiment [2] (setting [6]), 330 nM in experiment [2] (setting [7]), 530 nM in experiment [2] (setting [8]) and 160 nM in experiment [2] (setting [3]). In experiment [2], the “Resistance, Folds, aFGF 0.3 ng/ml + bFGF 1 ng/ml” value is on record as 1.83 Folds. Also, in experiment [2], the “Resistance, Folds, aFGF 1 ng/ml + bFGF 3 ng/ml” value came to 2.94 Folds.
With `COc1cccc2c1C(=O)c1c(O)c3c(c(O)c1C2=O)C[C@@](O)(C(=O)CO)C[C@@H]3O[C@H]1C[C@H](N)[C@@H](O)[C@H](C)O1` [Epirubicin], the IC50 was 102 nM in experiment [2] (setting [6]); 167 nM in experiment [2] (setting [7]); 282 nM in experiment [2] (setting [8]); 120 nM in experiment [2] (setting [3]); 122 nM in experiment [2] (setting [4]); 137 nM in experiment [2] (setting [5]). Also, the “Resistance, Folds, aFGF 0.3 ng/ml + bFGF 1 ng/ml” value in experiment [2] is recorded as 1.63 Folds. The “Resistance, Folds, aFGF 1 ng/ml + bFGF 3 ng/ml” value in experiment [2] is given as 2.75 Folds.
